Tests used:
[1] = target: T1, PI3K-δ kinase (p110δ/p85α) (Homo sapiens, UniProt O00329); experiment: Determination of PI3K kinase activity (ADP Transcreener, fluorescence polarization); format: biochemical; conditions: Table 1; ATP 10 μM; read-out: PI3K-δ/nM (IC50 of inhibitory activity against PI3K kinase)
T1 construct: purchased Millipore 14-604M

[2] = target: T2, PI3K-β kinase (p110β/p85α) (Homo sapiens, UniProt P42338); experiment: as above; format: biochemical; conditions: Table 1; ATP 10 μM; read-out: PI3K-β/nM (IC50 of inhibitory activity against PI3K kinase)
T2 construct: purchased Millipore 14-603
T2 sequence (P42338 whole entry): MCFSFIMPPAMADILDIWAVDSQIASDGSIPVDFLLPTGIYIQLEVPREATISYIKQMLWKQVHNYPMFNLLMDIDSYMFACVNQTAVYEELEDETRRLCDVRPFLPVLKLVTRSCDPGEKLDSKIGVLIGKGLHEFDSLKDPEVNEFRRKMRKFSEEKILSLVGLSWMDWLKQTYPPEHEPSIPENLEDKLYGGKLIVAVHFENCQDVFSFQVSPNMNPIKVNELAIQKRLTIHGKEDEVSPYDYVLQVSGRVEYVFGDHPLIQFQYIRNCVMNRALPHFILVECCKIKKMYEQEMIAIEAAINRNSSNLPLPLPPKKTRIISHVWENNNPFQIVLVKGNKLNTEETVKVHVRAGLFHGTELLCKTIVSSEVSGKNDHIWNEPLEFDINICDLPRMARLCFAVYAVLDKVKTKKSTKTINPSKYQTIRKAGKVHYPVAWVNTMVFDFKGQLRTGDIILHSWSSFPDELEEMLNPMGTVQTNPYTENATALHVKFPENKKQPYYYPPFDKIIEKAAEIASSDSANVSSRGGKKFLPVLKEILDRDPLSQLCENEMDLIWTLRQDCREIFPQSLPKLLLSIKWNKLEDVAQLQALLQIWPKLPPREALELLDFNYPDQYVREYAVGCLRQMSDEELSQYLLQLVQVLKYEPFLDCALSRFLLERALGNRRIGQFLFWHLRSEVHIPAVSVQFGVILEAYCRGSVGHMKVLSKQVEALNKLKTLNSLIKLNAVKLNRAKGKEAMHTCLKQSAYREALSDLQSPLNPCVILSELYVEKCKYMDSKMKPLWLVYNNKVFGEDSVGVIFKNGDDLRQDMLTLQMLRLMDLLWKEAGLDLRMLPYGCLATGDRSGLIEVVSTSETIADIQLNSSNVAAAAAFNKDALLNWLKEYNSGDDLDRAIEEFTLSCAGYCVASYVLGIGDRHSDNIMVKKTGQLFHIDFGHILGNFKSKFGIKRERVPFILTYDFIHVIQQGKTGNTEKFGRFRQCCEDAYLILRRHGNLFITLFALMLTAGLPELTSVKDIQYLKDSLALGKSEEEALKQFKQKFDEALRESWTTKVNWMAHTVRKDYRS
T2 sequence (P27986 whole entry partner): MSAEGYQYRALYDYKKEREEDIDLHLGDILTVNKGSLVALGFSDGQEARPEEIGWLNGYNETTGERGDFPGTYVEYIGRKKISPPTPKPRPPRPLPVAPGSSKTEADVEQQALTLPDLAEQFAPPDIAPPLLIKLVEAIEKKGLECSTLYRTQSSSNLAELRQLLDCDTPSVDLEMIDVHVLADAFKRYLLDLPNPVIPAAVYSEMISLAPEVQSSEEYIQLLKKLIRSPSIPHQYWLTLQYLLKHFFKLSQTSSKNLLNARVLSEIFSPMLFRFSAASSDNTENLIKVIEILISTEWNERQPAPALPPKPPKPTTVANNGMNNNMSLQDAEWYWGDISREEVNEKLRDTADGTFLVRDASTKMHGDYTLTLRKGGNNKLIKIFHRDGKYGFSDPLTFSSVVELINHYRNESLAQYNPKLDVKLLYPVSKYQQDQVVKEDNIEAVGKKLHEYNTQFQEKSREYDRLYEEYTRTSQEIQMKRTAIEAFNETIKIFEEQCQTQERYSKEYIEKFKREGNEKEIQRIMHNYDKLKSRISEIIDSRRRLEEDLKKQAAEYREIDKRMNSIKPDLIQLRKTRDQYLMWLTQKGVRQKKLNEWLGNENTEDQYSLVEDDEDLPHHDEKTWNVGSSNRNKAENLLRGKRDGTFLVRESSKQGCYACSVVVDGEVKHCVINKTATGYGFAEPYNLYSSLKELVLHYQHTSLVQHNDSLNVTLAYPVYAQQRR

[3] = target: T3, PI3K-α kinase (p110α/p85α) (Homo sapiens, UniProt P42336); experiment: as above; format: biochemical; conditions: Table 1; ATP 10 μM; read-out: PI3K-α/nM (IC50 of inhibitory activity against PI3K kinase)
T3 construct: purchased Invitrogen PV4788
T3 sequence (P42336 whole entry): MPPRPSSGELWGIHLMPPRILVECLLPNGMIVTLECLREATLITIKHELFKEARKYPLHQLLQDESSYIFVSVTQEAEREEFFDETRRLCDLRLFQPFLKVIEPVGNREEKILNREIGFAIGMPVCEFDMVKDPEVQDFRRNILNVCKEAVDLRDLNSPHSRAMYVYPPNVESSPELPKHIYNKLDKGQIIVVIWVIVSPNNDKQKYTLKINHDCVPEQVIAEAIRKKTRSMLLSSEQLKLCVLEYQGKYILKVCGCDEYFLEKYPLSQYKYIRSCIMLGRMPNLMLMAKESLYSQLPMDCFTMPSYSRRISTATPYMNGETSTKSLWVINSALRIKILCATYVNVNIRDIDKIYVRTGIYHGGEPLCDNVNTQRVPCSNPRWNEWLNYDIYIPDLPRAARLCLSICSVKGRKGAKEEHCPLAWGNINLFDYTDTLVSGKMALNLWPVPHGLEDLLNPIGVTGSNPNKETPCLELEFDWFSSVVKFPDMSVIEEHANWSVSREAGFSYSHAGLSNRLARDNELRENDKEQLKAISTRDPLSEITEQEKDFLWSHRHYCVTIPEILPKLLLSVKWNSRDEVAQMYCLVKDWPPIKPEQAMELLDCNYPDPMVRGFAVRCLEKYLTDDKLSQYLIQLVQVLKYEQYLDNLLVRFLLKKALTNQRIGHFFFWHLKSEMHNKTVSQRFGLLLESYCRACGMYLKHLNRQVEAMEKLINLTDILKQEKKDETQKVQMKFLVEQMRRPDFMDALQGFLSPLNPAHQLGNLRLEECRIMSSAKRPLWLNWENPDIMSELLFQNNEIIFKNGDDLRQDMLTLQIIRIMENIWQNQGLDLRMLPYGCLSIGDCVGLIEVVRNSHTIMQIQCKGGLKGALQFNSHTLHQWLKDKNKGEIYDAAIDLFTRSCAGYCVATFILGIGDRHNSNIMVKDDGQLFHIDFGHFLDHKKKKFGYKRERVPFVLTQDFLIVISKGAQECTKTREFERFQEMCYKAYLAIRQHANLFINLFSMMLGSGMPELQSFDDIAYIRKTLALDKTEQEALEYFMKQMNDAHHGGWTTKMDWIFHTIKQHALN
T3 sequence (P27986 whole entry partner): as the sequence (P27986 whole entry partner) above

[4] = target: T4, PI3K-γ kinase (p110γ) (Homo sapiens, UniProt P48736); experiment: as above; format: biochemical; conditions: Table 1; ATP 10 μM; read-out: PI3K-γ/nM (IC50 of inhibitory activity against PI3K kinase)
T4 construct: purchased Invitrogen PV4786
T4 sequence (P48736 whole entry): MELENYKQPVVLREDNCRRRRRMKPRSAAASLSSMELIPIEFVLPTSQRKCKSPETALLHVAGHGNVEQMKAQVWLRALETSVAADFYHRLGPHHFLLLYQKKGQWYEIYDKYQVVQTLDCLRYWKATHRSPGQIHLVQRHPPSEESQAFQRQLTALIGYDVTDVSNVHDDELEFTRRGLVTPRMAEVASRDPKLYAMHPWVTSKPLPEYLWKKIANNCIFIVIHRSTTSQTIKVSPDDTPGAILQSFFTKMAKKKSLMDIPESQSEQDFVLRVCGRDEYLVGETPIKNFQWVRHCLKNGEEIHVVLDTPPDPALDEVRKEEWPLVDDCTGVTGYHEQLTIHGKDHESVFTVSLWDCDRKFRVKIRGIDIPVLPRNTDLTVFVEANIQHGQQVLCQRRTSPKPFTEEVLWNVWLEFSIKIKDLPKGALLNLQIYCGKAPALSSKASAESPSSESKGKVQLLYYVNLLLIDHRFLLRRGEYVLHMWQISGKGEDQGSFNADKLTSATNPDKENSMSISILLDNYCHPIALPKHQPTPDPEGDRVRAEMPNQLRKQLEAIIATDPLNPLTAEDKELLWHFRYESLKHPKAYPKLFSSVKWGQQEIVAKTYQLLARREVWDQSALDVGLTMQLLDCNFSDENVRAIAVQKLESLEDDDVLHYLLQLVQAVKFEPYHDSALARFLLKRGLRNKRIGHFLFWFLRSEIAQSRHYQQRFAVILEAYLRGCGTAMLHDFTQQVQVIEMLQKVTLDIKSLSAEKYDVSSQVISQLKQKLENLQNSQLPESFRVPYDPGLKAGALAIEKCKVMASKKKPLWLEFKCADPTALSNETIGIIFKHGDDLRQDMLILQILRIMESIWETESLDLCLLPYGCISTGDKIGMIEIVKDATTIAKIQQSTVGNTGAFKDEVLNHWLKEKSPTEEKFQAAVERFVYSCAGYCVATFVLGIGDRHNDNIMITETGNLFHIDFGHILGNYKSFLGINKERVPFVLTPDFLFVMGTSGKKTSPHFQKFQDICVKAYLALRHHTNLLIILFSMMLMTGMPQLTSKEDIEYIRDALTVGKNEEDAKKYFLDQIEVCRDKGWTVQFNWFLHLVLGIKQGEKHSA
In short: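 Each 25 μL reaction held PI3K enzyme (p110α/p85α 3 ng, p110β/p85α 60 ng, p110δ/p85α 90 ng, or p110γ 100 ng), 10 μM ATP, 30 μM PIP2:PS and 2% DMSO, incubated 1 h at 25 °C. Compounds were tested in duplicate across a 3-fold series, 0.00046–1 μM as prepared. ADP was detected by Transcreener fluorescence polarization, quantified against an ADP/ATP standard curve, and IC50 fitted.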

[5] = tested on: T47D cells; experiment: Cell inhibitory activity detected by MTT assay, T47D; format: cell-based; conditions: Homo sapiens, T47D, 72 h, read-out: T47D cell (IC50/nM), cell growth inhibition

T1 sequence (O00329 whole entry): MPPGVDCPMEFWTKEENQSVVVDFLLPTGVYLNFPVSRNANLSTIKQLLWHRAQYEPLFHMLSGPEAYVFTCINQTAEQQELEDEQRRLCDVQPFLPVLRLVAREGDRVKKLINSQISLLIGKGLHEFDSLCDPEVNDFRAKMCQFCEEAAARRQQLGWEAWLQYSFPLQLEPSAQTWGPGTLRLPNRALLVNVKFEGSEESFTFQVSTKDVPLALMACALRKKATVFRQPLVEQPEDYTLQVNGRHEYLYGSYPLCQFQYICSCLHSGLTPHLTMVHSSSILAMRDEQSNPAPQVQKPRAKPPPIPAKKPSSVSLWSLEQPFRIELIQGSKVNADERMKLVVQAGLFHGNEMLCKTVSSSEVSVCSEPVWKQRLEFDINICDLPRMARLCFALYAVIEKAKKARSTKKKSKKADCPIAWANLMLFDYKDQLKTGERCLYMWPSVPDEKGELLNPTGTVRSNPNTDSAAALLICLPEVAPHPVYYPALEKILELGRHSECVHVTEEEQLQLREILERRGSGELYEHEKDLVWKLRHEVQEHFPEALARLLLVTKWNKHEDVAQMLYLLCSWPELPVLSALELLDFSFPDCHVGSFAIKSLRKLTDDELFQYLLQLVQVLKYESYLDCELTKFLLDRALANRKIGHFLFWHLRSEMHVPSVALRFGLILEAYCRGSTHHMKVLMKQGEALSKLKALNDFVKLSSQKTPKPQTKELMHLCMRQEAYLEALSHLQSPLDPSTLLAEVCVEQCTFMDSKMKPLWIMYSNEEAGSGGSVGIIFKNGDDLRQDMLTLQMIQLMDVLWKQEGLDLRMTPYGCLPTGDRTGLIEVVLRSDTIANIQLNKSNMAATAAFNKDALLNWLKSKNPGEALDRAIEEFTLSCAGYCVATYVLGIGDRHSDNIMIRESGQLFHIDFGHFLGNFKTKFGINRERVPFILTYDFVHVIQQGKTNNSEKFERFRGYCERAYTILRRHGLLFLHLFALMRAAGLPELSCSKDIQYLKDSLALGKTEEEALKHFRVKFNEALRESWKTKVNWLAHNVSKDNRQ
T1 sequence (P27986 whole entry partner): as the sequence (P27986 whole entry partner) above

IC50 [1]: 2580 nM
IC50 [2]: 2160 nM
IC50 [3]: 90 nM
IC50 [4]: > 3000 nM
IC50 [5]: 854 nM
Compound: CS(=O)(=O)C1(c2cc(N3CCOCC3)nc(-c3cnc(N)cc3C(F)(F)F)n2)CC1 [reference compound]
